From PubChem BioAssay AID330 (DTP/NCI, 2004)
“And” between values parts separate entries of the source, which are not always exact repeats. Identical values can stand only once. Toxic doses and inconclusive results are not listed. How the source made its calls: active means survival T/C of 150% or more; inactive means T/C below 125% in these data.

System: P388 leukemia ip, CD2F1 mice, survival T/C
Assay: NCI In Vivo Anticancer Drug Screen. Data for tumor model P388 Leukemia (intraperitoneal) in CD2F1 (CDF1) mice
Settings: endpoint: median survival time, higher = longer survival
In short: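 Mice carrying the transplanted tumor received test compound or vehicle. Survival was recorded in each group, and the value is the treated-group measurement divided by that of the vehicle-treated control group.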

[1] = dose: 50.0 mg/kg/injection, schedule: Q01DX005 (ip), vehicle: saline

Measured: T/C

CNC(=O)ON(C(C)=O)C(=O)NC
inactive: dose: 3.13 mg/kg/injection, schedule: Q03HX015 (ip), vehicle: water 101 % of control and 118 % of control | dose: 6.25 mg/kg/injection, schedule: Q01DX001 (iv), vehicle: saline 95 % of control | dose: 6.25 mg/kg/injection, schedule: Q01DX005 (iv), vehicle: saline 100 % of control | dose: 6.25 mg/kg/injection, schedule: Q01DX009 (ip), vehicle: saline 118 % of control | dose: 6.25 mg/kg/injection, schedule: Q03HX015 (ip), vehicle: water 121 % of control and 98 % of control | dose: 10.0 mg/kg/injection, schedule: Q01DX009 (ip), vehicle: saline 114 % of control and 119 % of control and 120 % of control | dose: 12.5 mg/kg/injection, schedule: Q01DX001 (iv), vehicle: saline 98 % of control | dose: 12.5 mg/kg/injection, schedule: Q01DX005 (ip), vehicle: saline 116 % of control | dose: 12.5 mg/kg/injection, schedule: Q01DX005 (iv), vehicle: saline 102 % of control | dose: 12.5 mg/kg/injection, schedule: Q01DX005 (oral), vehicle: saline 101 % of control | dose: 12.5 mg/kg/injection, schedule: Q01DX009 (ip), vehicle: water 103 % of control and 120 % of control | dose: 12.5 mg/kg/injection, schedule: Q01DX009 (oral), vehicle: saline 103 % of control | dose: 12.5 mg/kg/injection, schedule: Q03HX015 (ip), vehicle: saline 115 % of control | dose: 12.5 mg/kg/injection, schedule: Q03HX015 (ip), vehicle: water 99 % of control and 116 % of control | dose: 20.0 mg/kg/injection, schedule: Q01DX009 (ip), vehicle: saline 121 % of control | dose: 25.0 mg/kg/injection, schedule: Q01DX001 (ip), vehicle: saline 106 % of control | dose: 25.0 mg/kg/injection, schedule: Q01DX001 (iv), vehicle: saline 100 % of control | dose: 25.0 mg/kg/injection, schedule: Q01DX001 (oral), vehicle: saline 98 % of control | dose: 25.0 mg/kg/injection, schedule: Q01DX005 (ip), vehicle: saline 116 % of control | dose: 25.0 mg/kg/injection, schedule: Q01DX005 (iv), vehicle: saline 104 % of control | dose: 25.0 mg/kg/injection, schedule: Q01DX005 (oral), vehicle: saline 104 % of control | dose: 25.0 mg/kg/injection, schedule: Q01DX009 (ip), vehicle: water 106 % of control | dose: 25.0 mg/kg/injection, schedule: Q01DX009 (oral), vehicle: saline 120 % of control | dose: 25.0 mg/kg/injection, schedule: Q03HX015 (ip), vehicle: water 107 % of control | dose: 40.0 mg/kg/injection, schedule: Q01DX009 (ip), vehicle: saline 124 % of control | dose: 50.0 mg/kg/injection, schedule: Q01DX001 (ip), vehicle: saline 111 % of control | dose: 50.0 mg/kg/injection, schedule: Q01DX001 (iv), vehicle: saline 101 % of control and 102 % of control | dose: 50.0 mg/kg/injection, schedule: Q01DX001 (oral), vehicle: saline 97 % of control | [1] 114 % of control | dose: 50.0 mg/kg/injection, schedule: Q01DX005 (iv), vehicle: saline 106 % of control and 108 % of control | dose: 50.0 mg/kg/injection, schedule: Q01DX005 (oral), vehicle: saline 110 % of control | dose: 50.0 mg/kg/injection, schedule: Q01DX009 (ip), vehicle: water 107 % of control | dose: 50.0 mg/kg/injection, schedule: Q01DX009 (oral), vehicle: saline 115 % of control | dose: 50.0 mg/kg/injection, schedule: Q03HX015 (ip), vehicle: water 112 % of control | dose: 80.0 mg/kg/injection, schedule: Q01DX009 (ip), vehicle: saline 121 % of control | dose: 100.0 mg/kg/injection, schedule: Q01DX001 (ip), vehicle: saline 105 % of control | dose: 100.0 mg/kg/injection, schedule: Q01DX001 (iv), vehicle: saline 99 % of control and 101 % of control | dose: 100.0 mg/kg/injection, schedule: Q01DX001 (oral), vehicle: saline 103 % of control | dose: 100.0 mg/kg/injection, schedule: Q01DX005 (iv), vehicle: saline 114 % of control and 115 % of control | dose: 100.0 mg/kg/injection, schedule: Q01DX005 (oral), vehicle: saline 120 % of control | dose: 100.0 mg/kg/injection, schedule: Q01DX009 (ip), vehicle: water 121 % of control | dose: 200.0 mg/kg/injection, schedule: Q01DX001 (iv), vehicle: saline 107 % of control | dose: 200.0 mg/kg/injection, schedule: Q01DX001 (oral), vehicle: saline 103 % of control | dose: 200.0 mg/kg/injection, schedule: Q01DX005 (oral), vehicle: saline 116 % of control | dose: 200.0 mg/kg/injection, schedule: Q01DX009 (ip), vehicle: water 123 % of control | dose: 400.0 mg/kg/injection, schedule: Q01DX001 (oral), vehicle: saline 116 % of control

Cc1c2ccncc2c(CO)c2c3ccccc3n(C)c12
inactive: dose: 5.0 mg/kg/injection, schedule: Q01DX005 (ip), vehicle: saline 109 % of control | dose: 10.0 mg/kg/injection, schedule: Q01DX005 (ip), vehicle: saline 97 % of control | dose: 20.0 mg/kg/injection, schedule: Q01DX005 (ip), vehicle: saline 97 % of control

O=C1NC(=O)C2(CCCc3c([N+](=O)[O-])cccc32)N1 (centres undefined)
inactive: dose: 50.0 mg/kg/injection, schedule: Q01DX009 (ip), vehicle: saline with Tween-80 97 % of control | dose: 100.0 mg/kg/injection, schedule: Q01DX009 (ip), vehicle: saline with Tween-80 93 % of control | dose: 200.0 mg/kg/injection, schedule: Q01DX009 (ip), vehicle: saline with Tween-80 90 % of control

Nc1ccc(C(=O)CCCN2CCCCC2)cc1
inactive: dose: 12.5 mg/kg/injection, schedule: Q01DX009 (ip), vehicle: saline 104 % of control | dose: 12.5 mg/kg/injection, schedule: Q04DX003 (ip), vehicle: saline 91 % of control | dose: 25.0 mg/kg/injection, schedule: Q01DX009 (ip), vehicle: saline 95 % of control | dose: 25.0 mg/kg/injection, schedule: Q04DX003 (ip), vehicle: saline 95 % of control | dose: 50.0 mg/kg/injection, schedule: Q01DX009 (ip), vehicle: saline 90 % of control | dose: 50.0 mg/kg/injection, schedule: Q04DX003 (ip), vehicle: saline 91 % of control

COc1ccccc1N=c1scc(C)n1C
inactive: dose: 50.0 mg/kg/injection, schedule: Q01DX009 (ip), vehicle: Klucel (hydroxypropylcellulose) (HPC) 111 % of control | dose: 100.0 mg/kg/injection, schedule: Q01DX009 (ip), vehicle: Klucel (hydroxypropylcellulose) (HPC) 109 % of control | dose: 200.0 mg/kg/injection, schedule: Q01DX009 (ip), vehicle: Klucel (hydroxypropylcellulose) (HPC) 118 % of control

OCc1ccc(O)c(O)c1
inactive: [1] 116 % of control | dose: 100.0 mg/kg/injection, schedule: Q01DX005 (ip), vehicle: saline 123 % of control | dose: 200.0 mg/kg/injection, schedule: Q01DX005 (ip), vehicle: saline 123 % of control | dose: 400.0 mg/kg/injection, schedule: Q01DX005 (ip), vehicle: saline 120 % of control

O=C(O)c1ccc(C(Cl)(Cl)Cl)cc1
inactive: dose: 100.0 mg/kg/injection, schedule: Q04DX003 (ip), vehicle: saline sonified 113 % of control | dose: 200.0 mg/kg/injection, schedule: Q04DX003 (ip), vehicle: saline sonified 113 % of control | dose: 400.0 mg/kg/injection, schedule: Q04DX003 (ip), vehicle: saline sonified 113 % of control

CS(=O)CC(Nc1ccccc1)c1ccccc1 (centres undefined)
inactive: dose: 60.0 mg/kg/injection, schedule: Q01DX005 (ip), vehicle: Klucel (hydroxypropylcellulose) (HPC) 108 % of control | dose: 120.0 mg/kg/injection, schedule: Q01DX005 (ip), vehicle: Klucel (hydroxypropylcellulose) (HPC) 95 % of control | dose: 240.0 mg/kg/injection, schedule: Q01DX005 (ip), vehicle: Klucel (hydroxypropylcellulose) (HPC) 87 % of control

O=C(C1CC2CCC1C2)C1CC2CCC1C2 (centres undefined)
inactive: dose: 28.2 mg/kg/injection, schedule: Q01DX009 (ip), vehicle: saline with Tween-80 100 % of control | dose: 56.5 mg/kg/injection, schedule: Q01DX009 (ip), vehicle: saline with Tween-80 95 % of control | dose: 113.0 mg/kg/injection, schedule: Q01DX009 (ip), vehicle: saline with Tween-80 100 % of control
